Data from patent US10935546B2, “Fluorescent AMP-kinase biosensors” (Universite Grenoble Alpes, priority 2015, dated 2021).

How the values were obtained:
[1] = biological target: T1, AMPfret 2.1 (UniProt O43741+P80385+Q09137); test: FRET assay with purified AMPfret 2.1 sensor (fluorimeter); assay type: binding, rat α2 and γ1, human β2; settings: 50 μM A-769662 or 500 μM Metformin, compared with 20 μM AMP (FIG. 6)
T1 construct: decaHis tag with TEV site (N); made in house; host or cells: E. coli BL21 (DE3) Star
T1 sequence (Q09137 1-550): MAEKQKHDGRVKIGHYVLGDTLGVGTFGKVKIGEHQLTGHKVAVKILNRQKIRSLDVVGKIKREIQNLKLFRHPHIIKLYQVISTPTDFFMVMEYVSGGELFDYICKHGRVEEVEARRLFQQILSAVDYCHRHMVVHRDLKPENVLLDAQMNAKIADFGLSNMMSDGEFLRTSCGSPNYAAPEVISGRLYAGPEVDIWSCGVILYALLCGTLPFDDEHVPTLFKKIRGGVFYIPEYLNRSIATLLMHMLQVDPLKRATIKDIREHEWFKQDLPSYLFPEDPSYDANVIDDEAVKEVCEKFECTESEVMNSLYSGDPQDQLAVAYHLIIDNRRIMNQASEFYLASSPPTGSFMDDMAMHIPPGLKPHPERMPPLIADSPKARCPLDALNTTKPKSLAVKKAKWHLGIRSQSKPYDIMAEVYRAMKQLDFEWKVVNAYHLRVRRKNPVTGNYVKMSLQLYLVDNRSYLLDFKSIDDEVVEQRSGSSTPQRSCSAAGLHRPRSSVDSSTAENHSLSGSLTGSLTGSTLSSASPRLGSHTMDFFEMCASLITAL
T1 sequence (O43741 1-269): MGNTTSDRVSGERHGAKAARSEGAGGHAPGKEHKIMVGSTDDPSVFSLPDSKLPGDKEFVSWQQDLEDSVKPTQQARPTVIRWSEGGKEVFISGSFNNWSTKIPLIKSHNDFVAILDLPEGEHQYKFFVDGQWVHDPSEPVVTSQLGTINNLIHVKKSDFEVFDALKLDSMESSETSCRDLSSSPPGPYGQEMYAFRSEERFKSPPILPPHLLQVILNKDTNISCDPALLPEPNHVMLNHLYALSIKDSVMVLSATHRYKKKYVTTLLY
T1 sequence (P80385 whole entry): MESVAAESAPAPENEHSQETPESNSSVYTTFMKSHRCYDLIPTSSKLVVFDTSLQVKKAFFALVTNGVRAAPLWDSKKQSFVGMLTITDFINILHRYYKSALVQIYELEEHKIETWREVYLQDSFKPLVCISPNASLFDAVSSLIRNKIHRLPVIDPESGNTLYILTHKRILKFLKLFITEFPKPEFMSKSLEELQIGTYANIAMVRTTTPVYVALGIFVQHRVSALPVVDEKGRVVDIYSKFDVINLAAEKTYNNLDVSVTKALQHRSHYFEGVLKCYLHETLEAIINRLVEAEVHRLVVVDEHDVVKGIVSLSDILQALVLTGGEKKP
Protocol: The FRET ratio was calculated from fluorescence emission spectra excited at 430 nm. Data points correspond to mean±SEM (n>3).
Structure and names of the molecules are given below the bars.
(§1) FRET assay: FRET signal variation in presence of different compounds (nucleotides, chemicals, ions) was measured using a fluorimeter (Photon Technology International). AMPfret constructs (20 pmol) were incubated in a quartz cuvette in a final volume of 150 μL (spectro buffer: 50 mM Tris pH8, 200 mM NaCl, 5 mM MgCl2, 2 mM β-mercaptoethanol). Effects of nucleotides and others compounds (previously prepared in the spectro buffer) on the FRET ratio given by AMPfret sensor was determined by comparing FRET ratio (peak value at 527 nm/peak value at 476 nm) in presence or absence of the compounds. Excitation wavelength was set to 430 nm, and emission spectra were recorded from 450 to 600 nm with an integration time of 0.2 s. Mg^2+ effect on FRET was investigated in spectro buffer without Mg^2+.

[2] = test system: AMPfret 2.1 in 3T3-L1 or HeLa cells; settings: 1 mM AICAR
Protocol: HeLa cells transfected with AMPFret 2.1 were exposed for 60 min to 1 mM AICAR. […] (b) Time course of the FRET signal. […] (c) AMPK activation at t=0 min and t=60 min. Phosphorylation of the AMPK substrate ACC as determined by immunoblotting (lower panel) and quantification of the resulting P-ACC/total ACC ratio (upper panel). P-ACC/total ACC ratios at t=0 and t=60 min are respectively represented as a white dotted bar and black dotted bar. Data correspond to mean±SEM (n=3).
For cellular ex vivo experiments, subunits of the optimized construct AMPfret 2.1 were cloned in the vectors (pACEMam2, pMDS and pMDK) of the MultiMam expression system. Created plasmids were fused via their Lox-P site to yield to a single mammalian expression vector coding for the sensor AMPFret 2.1 according to well-known techniques to the skilled man in the art.
3T3-L1 and HeLa cells were cultivated in glucose containing DMEM (4.5 g/L) supplemented with SVF, glutamine, penicillin and streptomycin. Once cells reached around 80% confluence, medium was replaced by OptiMEM (Lifetechnologies) and AMPfret 2.1 coding plasmid was transfected using Lipofectamine2000 (Lifetechnologies). After 5 h, OptiMEM was exchanged by complete DMEM and cells grew for >36 h until their observations under the confocal microscope.
LabTek plates were placed in an incubation chamber in which the temperature and O2 concentration were maintained at 37° C. and 21%, respectively. Without moving the Labtek, 200 μL medium was replaced by the same volume of complete medium containing 2 mM AICAR (1 mM final). Excitation wavelength was set to 458 nm and emission spectra showing FRET signal were monitored through A scans from 463 nm to 600 nm every 15 min. ROI (region of interest) were drawn in order to cover entire cells. FRET ratio variations were calculated from those measured emission spectra.
AMPfret 2.1 was excited using a 458 nm laser and emission spectra showing FRET signal were monitored through A scans from 463 nm to 600 nm every 15 min.

[3] = FRET signal variation of AMPfret constructs upon AMP/ADP binding; settings: 3 mM ATP vs 20 μM AMP (FIG. 2)
Description: Top: Schema showing structural organization of the sensors. CFP and YFP are respectively represented as hatched- and dotted-circles. (a) Fluorescence emission spectra of AMPfret constructs excited at 430 nm. […] Data correspond to mean±SEM (AMPfret A: n=7; AMPfret C: n=10).
Second generation of AMPfret constructs 1.1 and 2.1. based on constructs AMPfret C and A, respectively. Top: Schema showing structural organization of the sensors. Both optimized constructs contain mseCFPΔ11/cpVenus as GFP-derived fluorescent couple instead of CFP/YFP. mseCFPΔ11 and cpVenus are respectively represented as hatched- and checkered circles. […] (a) Fluorescence emission spectra of AMPfret constructs excited at 430 nm. […] Data correspond to mean±SEM (AMPfret 1.0: n=10; AMPfret 1.1: n=7); *=p<0.001 (significance assessed by a Student-Newman-Keuls test).
as §1, with “AMPfret constructs (20 pmol) were incubated in a quartz cuvette in a final volume of 150 μL (spectro buffer: 50 mM Tris pH8, 200 mM NaCl, 5 mM MgCl2, 2 mM β-mercaptoethanol).” left out, “Mg^2+ effect on FRET was investigated in spectro buffer without Mg^2+.” left out

Molecule	FRET signal induced in AMPfret in vitro [1]	difference in FRET signal depending on the presence of AMP or ADP [3] [%]	other results
N#Cc1c(O)c2c(-c3ccc(-c4ccccc4O)cc3)csc2[nH]c1=O [A-769662]	induces a FRET signal comparable to AMP		
NC(=O)c1ncn([C@@H]2O[C@H](CO)[C@@H](O)[C@H]2O)c1N [AICAR, 5′-Aminoimidazole-4-carboxamide ribonucleoside]			time to maximal effect on FRET signal [2]: about 30 minutes; AMPfret 2.1 FRET signal upon AICAR addition ([2]; 60 min, read every 15 min, HeLa and 3T3-L1 cells): increased with time; FRET response after 15 min of treatment ([2]; 15 min): More than half-maximal response; cpVenus peak (527 nm) in fluorescence emission spectra over time ([2]; HeLa cells transfected with AMPFret 2.1, 0, 15, 30 min): increase of cpVenus peak
AMPfret A: AMPK heterotrimer: rat alpha2-CFP (SEQ ID NO:5), human beta2-YFP (SEQ ID NO:11), rat gamma1 (SEQ ID NO:15)		~10	

The next lines start with results.

FRET signal induced in AMPfret in vitro [1]	difference in FRET signal depending on the presence of AMP or ADP [3] [%]	Molecule	other results
did not induce any FRET variation		CN(C)C(=N)N=C(N)N [Metformin]	
	~10	AMPfret C: AMPK heterotrimer: rat alpha2-CFP (SEQ ID NO:5), human beta2 (SEQ ID NO:9), rat gamma1-YFP (SEQ ID NO:21)	
